Test results from patent publication US4206215A, “Antimicrobial bis-[4-(substituted-amino)-1-pyridinium]alkanes” (Sterling Drug Inc., priority 1977, dated 1980).
Where two headings read alike, the source gives them in different places.

Assays:
[1] = system: E. coli Vogel; assay: In vitro antibacterial activity, MIC (modified Autotiter method); type: cell-based, Escherichia coli; conditions: 18-20 hours at 37° C.
Outline: (§1)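 MIC values come from a twofold dilution series spanning final concentrations of 500 down to 0.06 mcg./ml. Dilutions were prepared automatically in sterile water from a 1,000 mcg./ml. solution before inoculated double-strength glucose-containing semisynthetic medium was added.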

[2] = system: E. coli AB1932-1; assay: as above; type: cell-based, Escherichia coli; conditions: 18-20 hours at 37° C.
Outline: as §1

[3] = system: E. coli 100/B22; assay: as above; type: cell-based, Escherichia coli; conditions: 18-20 hours at 37° C.
Outline: as §1

[4] = system: S. Aureus Smith; assay: as above; type: cell-based, Staphylococcus aureus; conditions: 18-20 hours at 37° C.
Outline: as §1

[5] = system: T. menta. 9129; assay: In vitro antifungal activity, MIC (modified Autotiter method); type: cell-based, Trichophyton mentagrophytes; conditions: 18-20 hours at 37° C.
Outline: as §1

[6] = system: Herpes simplex type 2 virus; assay: Virucidal activity in vitro (plaque inhibition test); type: cell-based; conditions: 2 mg. of test compound on growth medium
Method: Virucidal activity of representative examples against Herpes simplex type 2 virus was determined in vitro employing a procedure similar to the plaque inhibition test for detection of specific inhibitors of DNA-containing viruses published by E. C. Herrmann, Jr., Proc. Soc. Exp. Biol. Med. 107, 142 (1961) wherein 2 mg. of the test compound was placed on the surface of the growth medium.

[7] = system: A. niger 16404; assay: In vitro antifungal activity, MIC (modified Autotiter method); type: cell-based, Aspergillus niger; conditions: 18-20 hours at 37° C.
Outline: as §1

[8] = system: young adult male Swiss-Webster strain albino mice; assay: Acute oral toxicity (ALD50); type: in vivo
Method: (§2) The acute oral toxicity (ALD50) of several representative examples was determined as follows: Groups of 3 young adult male Swiss-Webster strain albino mice were fasted approximately 4 hours before medication and then medicated once orally by stomach tube.

[9] = system: K. pneum. 39645; assay: In vitro antibacterial activity, MIC (modified Autotiter method); type: cell-based, Klebsiella pneumoniae; conditions: 18-20 hours at 37° C.
Outline: as §1

[10] = system: Ps. aerug. MGH-2; assay: as above; type: cell-based, Pseudomonas aeruginosa; conditions: 18-20 hours at 37° C.
Outline: as §1

[11] = system: S. pyogen. C203; assay: as above; type: cell-based, Streptococcus pyogenes; conditions: 18-20 hours at 37° C.
Outline: as §1

[12] = system: E. Coli ATCC 8739; assay: Effect of serum on bacteriostatic activity (serial tube dilution test); type: cell-based, Escherichia coli; conditions: for MIC: Escherichia coli, ATCC8739
Method: (§3) Antibacterial effectiveness in the presence of serum was determined for representative examples by the standard serial tube dilution test wherein paired comparisons of minimum inhibitory concentrations (MIC) were determined in the absence and in the presence of heat inactivated (30 min. at 56° C.) horse serum (40%) in the test medium. The results are expressed as the fold increase in MIC (mcg./ml.) versus Staphyloccocus aureus and Escherichia coli caused by the presence of serum and are presented in Table B hereinbelow.

[13] = system: P. mirab. MGH-1; assay: In vitro antibacterial activity, MIC (modified Autotiter method); type: cell-based, Proteus mirabilis; conditions: 18-20 hours at 37° C.
Outline: as §1

[14] = system: C. albicans 10231; assay: In vitro antifungal activity, MIC (modified Autotiter method); type: cell-based, Candida albicans; conditions: 18-20 hours at 37° C.
Outline: as §1

[15] = system: C. albicans Wisc.; assay: as above; type: cell-based, Candida albicans; conditions: 18-20 hours at 37° C.
Outline: as §1

[16] = system: S. Aureus ATCC 6538; assay: Effect of serum on bacteriostatic activity (serial tube dilution test); type: cell-based, Staphyloccocus aureus; conditions: for MIC: Staphylococcus aureus, ATCC6538
Method: as §3

[17] = Acute oral toxicity (ALD50); type: in vivo; conditions: mouse, in vivo, po, mice, aqueous solution; read-out: 7-Day ALD50
Method: as §2

[18] = 125 mg/kg oral, suspension in 1% G.T.
[19] = 250 mg/kg oral, suspension in 1% G.T.
[20] = 500 mg/kg oral, suspension in 1% G.T.
[21] = 1000 mg/kg oral, suspension in 1% G.T.
[22] = 125 mg/kg oral, aqueous solution
[23] = 250 mg/kg oral, aqueous solution
[24] = 500 mg/kg oral, aqueous solution
[25] = 1000 mg/kg oral, aqueous solution

Compound | MIC E. coli Vogel [1] | MIC E. coli AB1932-1 [2] | MIC E. coli 100/B22 [3] | MIC S. Aureus Smith [4] | MIC T. menta. 9129 [5] | MIC A. niger 16404 [7] | MIC K. pneum. 39645 [9] | MIC Ps. aerug. MGH-2 [10] | MIC S. pyogen. C203 [11] | MIC P. mirab. MGH-1 [13] | MIC C. albicans 10231 [14] | MIC C. albicans Wisc. [15] | Mortality 7 Days [8, 22] | Mortality 7 Days [8, 23] | Mortality 24 Hrs [8, 23] | Mortality 7 Days [8, 24] | Mortality 24 Hrs [8, 24] | Mortality 7 Days [8, 25] | Mortality 24 Hrs [8, 25] | LD50 at 168 h [17] | further results
CCCCCCCNc1cc[n+](CCCCCCCCCCCCCC[n+]2ccc(NCCCCCCC)cc2)cc1 [Example 1D, 1,14-bis-[4-(heptylamino)-1-pyridinium]-tetradecane dibromide] | 1.54 µg/mL | 3.0 µg/mL | 0.77 µg/mL | 0.77 µg/mL | 0.77 µg/mL | 3.0 µg/mL | 0.77 µg/mL | 3.0 µg/mL | 1.95 µg/mL | 1.54 µg/mL | 1.54 µg/mL | 1.54 µg/mL |  |  |  |  |  |  |  |  | Virucidal activity against Herpes simplex type 2 virus [6]: active; Mortality 7 Days [8, 18]: 0/3; Mortality 24 Hrs [8, 18]: 0/3; Mortality 7 Days [8, 19]: 0/3; Mortality 24 Hrs [8, 19]: 0/3; Mortality 7 Days [8, 20]: 1/3; Mortality 24 Hrs [8, 20]: 1/3; Mortality 7 Days [8, 21]: 2/3; Mortality 24 Hrs [8, 21]: 2/3; 7-Day ALD50 ([8]; oral, suspension in 1% gum tragacanth, 10080 min): 750 mg/kg; Fold Increase in MIC E. Coli ATCC 8739 ([12]; 40% vs 0% horse serum): 16 fold; MIC ([12]; 40% heat inactivated horse serum, read-out: MIC E. Coli ATCC 8739 40% Serum): 25 µg/mL; MIC ([12]; read-out: MIC E. Coli ATCC 8739 0% Serum): 1.56 µg/mL; Fold Increase in MIC S. Aureus ATCC 6538 ([16]; 40% vs 0% horse serum): 16 fold; MIC ([16]; 40% heat inactivated horse serum, read-out: MIC S. Aureus ATCC 6538 40% Serum): 3.12 µg/mL; MIC ([16]; read-out: MIC S. Aureus ATCC 6538 0% Serum): 0.195 µg/mL
CCCCCCCNc1cc[n+](CCCCCCCCCC[n+]2ccc(NCCCCCCC)cc2)cc1 [Example 27] | 0.5 µg/mL | 1.0 µg/mL | 0.5 µg/mL | 0.25 µg/mL | 1.0 µg/mL | 3.9 µg/mL | 1.0 µg/mL | 7.8 µg/mL | 0.5 µg/mL | 7.8 µg/mL | 1.96 µg/mL | 1.0 µg/mL | 1/3 | 0/3 | 0/3 | 1/3 | 1/3 | 3/3 | 1/3 | 250 mg/kg | Mortality 24 Hrs [8, 22]: 0/3
CCCCCCCNc1cc[n+](CCCCCCCC[n+]2ccc(NCCCCCCC)cc2)cc1 [Example 23] | 1.95 µg/mL | 1.0 µg/mL | 1.95 µg/mL | 0.5 µg/mL | 1.95 µg/mL | 7.8 µg/mL | 1.95 µg/mL | 31.3 µg/mL | 1.0 µg/mL | 62.6 µg/mL | 1.0 µg/mL | 1.95 µg/mL | 0/3 | 0/3 | 0/3 | 1/3 | 1/3 | 3/3 | 3/3 | 625 mg/kg | Mortality 24 Hrs [8, 22]: 0/3
CCCCCCNc1cc[n+](CCCCCCCCCCCCCC[n+]2ccc(NCCCCCC)cc2)cc1 [Example 6] | 1.0 µg/mL | 0.5 µg/mL | 0.5 µg/mL | 0.5 µg/mL | 0.5 µg/mL | 3.9 µg/mL | 1.0 µg/mL | 3.9 µg/mL | 1.95 µg/mL | 3.9 µg/mL | 1.0 µg/mL | 1.95 µg/mL | 1/3 | 1/3 | 0/3 | 2/3 | 2/3 | 3/3 | 3/3 | 315 mg/kg | Mortality 24 Hrs [8, 22]: 1/3
CCCCCCCNc1cc[n+](CCCCCCCCC[n+]2ccc(NCCCCCCC)cc2)cc1 [Example 25, 1,9-Bis-[4-(heptylamino)-1-pyridinium]nonane dichloride] | 1.0 µg/mL | 1.0 µg/mL | 1.0 µg/mL | 0.25 µg/mL | 1.0 µg/mL | 1.95 µg/mL | 1.95 µg/mL | 31.3 µg/mL | 0.5 µg/mL | 31.3 µg/mL | 1.0 µg/mL | 1.0 µg/mL |  | 1/3 | 1/3 | 1/3 | 1/3 | 3/3 | 3/3 | 500 mg/kg | Autopsy, gross tissue changes ([8]; oral, 7 days, Example 25: 1000 mg./kg.): congestion of the glandular portion of the stomachs of two of the three mice was observed
CCCCC(CC)CNc1cc[n+](CCCCCCCCCC[n+]2ccc(NCC(CC)CCCC)cc2)cc1 (stereo not drawn) [Example 59, 1,10-Bis-[4-(2-ethylhexylamino)-1-pyridinium]-decane dichloride] | 1.0 µg/mL | 1.0 µg/mL | 0.5 µg/mL | 0.25 µg/mL | 1.0 µg/mL | 15.6 µg/mL | 1.95 µg/mL | 31.3 µg/mL | 1.0 µg/mL | 7.8 µg/mL | 1.95 µg/mL | 1.95 µg/mL | 0/3 | 0/3 | 0/3 | 2/3 | 1/3 | 1/3 | 1/3 | 750 mg/kg | Mortality 24 Hrs [8, 22]: 0/3
CCCCCCCCNc1cc[n+](CCCCCCCC[n+]2ccc(NCCCCCCCC)cc2)cc1 [Example 12, 1,8-Bis-[4-(octylamino)-1-pyridinium]octane dichloride] | 1.0 µg/mL | 1.0 µg/mL | 0.5 µg/mL | 0.25 µg/mL | 1.0 µg/mL | 7.8 µg/mL | 1.0 µg/mL | 7.8 µg/mL | 0.5 µg/mL | 3.9 µg/mL | 1.0 µg/mL | 1.0 µg/mL | 0/3 | 0/3 | 0/3 | 1/3 | 1/3 | 2/3 | 2/3 | 750 mg/kg | Mortality 24 Hrs [8, 22]: 0/3
